Assay results taken from patent US20070117743A1, “New antitumoral compounds” (priority 2003, published 2007).
Read-outs that look alike come from different tables or passages of the source.

Legend:
Format in all cases: cell-based, human
IGROV-1 = test: SRB colorimetric assay of cell growth and viability, IGROV-1; conditions: 48 hours exposure
HeLa = test: SRB colorimetric assay of cell growth and viability, HeLa; conditions: 48 hours exposure; for CC50: read-out: LC50 HELA
HT-29 = test: SRB colorimetric assay of cell growth and viability, HT-29; conditions: 48 hours exposure; for GI50: read-out: GI50 HT-29; for CC50: read-out: LC50 HT-29
PANC-1 = test: SRB colorimetric assay of cell growth and viability, PANC-1; conditions: 48 hours exposure; for CC50: read-out: LC50 PANC-1
LoVo = test: SRB colorimetric assay of cell growth and viability, LoVo; conditions: 48 hours exposure; for CC50: read-out: LC50 LOVO
K-562 = test: SRB colorimetric assay of cell growth and viability, K-562; conditions: 48 hours exposure; for CC50: read-out: LC50 K-562
LNCaP = test: SRB colorimetric assay of cell growth and viability, LNCaP; conditions: 48 hours exposure; for GI50: read-out: GI50 LN-caP; for CC50: read-out: LC50 LN-caP
From the text: The finality of this assay is to interrupt the growth of a “in vitro” tumor cell culture by means a continued exhibition of the cells to the sample to be testing.
This form of the assay employs 96 well cell culture microplates of 9 mm diameter (Faircloth, 1988; Mosmann, 1983). Most of the cell lines are obtained from American Type Culture Collection (ATCC) derived from different human cancer types.
Cells are maintained in RPMI 1640 10% FBS, supplemented with 0.1 g/l penicillin and 0.1 g/l streptomycin sulfate and then incubated at 37° C., 5% CO2 and 98% humidity. For the experiments, cells were harvested from subconfluent cultures using trypsin and resuspended in fresh medium before plating.
Cells are seeded in 96 well microtiter plates, at 5×10^3 cells per well in aliquots of 195 μL medium, and they are allowed to attach to the plate surface by growing in drug free medium for 18 hours. Afterward, samples are added in aliquots of 5 μL in a ranging from 10 to 10^−8 μg/mL, dissolved in DMSO:EtOH:PBS (0.5:0.5:99). After 48 hours exposure, the antitumor effect are measured by the SRB methodology: cells are fixed by adding 50 μL of cold 50% (wt/vol) trichloroacetic acid (TCA) and incubating for 60 minutes at 4° C. Plates are washed with deionized water and dried. One hundred μL of SRB solution (0.4% wt/vol in 1% acetic acid) is added to each microtiter well and incubated for 10 minutes at room temperature. Unbound SRB is removed by washing with 1% acetic acid. Plates are air dried and bound stain is solubilized with Tris buffer. Optical densities are read on a automated spectrophotometric plate reader at a single wavelength of 490 nm.
The values for mean+/− SD of data from triplicate wells are calculated. Some parameters for cellular responses can be calculated: GI=growth inhibition, TGI=total growth inhibition (cytostatic effect) and LC=cell killing (cytotoxic effect).

SK-MEL-28 = test: SRB colorimetric assay of cell growth and viability, SK-MEL-28; conditions: 48 hours exposure; for CC50: read-out: LC50 MEL-28
DU-145 = test: SRB colorimetric assay of cell growth and viability, DU-145; conditions: 48 hours exposure
HeLa-APL = test: SRB colorimetric assay of cell growth and viability, HeLa-APL; conditions: 48 hours exposure; for CC50: read-out: LC50 HELA-APL
A-549 = test: SRB colorimetric assay of cell growth and viability, A-549; conditions: 48 hours exposure; for GI50: read-out: GI50 A-549; for CC50: read-out: LC50 A-549
IGROV-ET = test: SRB colorimetric assay of cell growth and viability, IGROV-ET; conditions: 48 hours exposure; for CC50: read-out: LC50 IGROV-ET
LoVo-Dox = test: SRB colorimetric assay of cell growth and viability, LoVo-Dox; conditions: 48 hours exposure; for CC50: read-out: LC50 LOVO-DOX
Summary of the method: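 48 h continuous exposure, 10 to 10^−8 μg/mL; 5×10^3 cells/well, 18 h attachment; TCA fix, 0.4% SRB, OD 490 nm. Triplicates; GI, TGI, LC derived.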

For `C/C=C1\NC(=O)[C@H](Cc2ccccc2)NC(=O)[C@@H](C(C)C)NC(=O)[C@@H]([C@@H](C)CC)NC(=O)[C@H](NC(=O)[C@H](NC(=O)[C@H](CCCN)NC(=O)[C@H]2CCCN2C(=O)[C@H](NC(=O)[C@@H](NC(=O)[C@@H](NC(=O)[C@H](NC(=O)CCCC(C)C)[C@H](C)O)[C@@H](C)O)C(C)C)C(C)C)[C@@H](C)CC)[C@@H](C)OC(=O)[C@H](C(C)C)NC1=O` [Compound 41, [D-Thr^13]-KF], the GI50 (IGROV-1) was 0.777 µM, the LC50 (concentration causing 50% net cell killing) (IGROV-1) was 3.13 µM and the “TGI IGROV” value (IGROV-1) was 1.56E−06 Molar. The GI50 (HeLa) was 1.02 µM, the “TGI HELA” value (HeLa) was 2.00E−06 Molar and the CC50 (HeLa) was 3.94 µM. For the same molecule, the “TGI HT-29” value (HT-29) was 1.57E−06 Molar, the GI50 (HT-29) was 0.73 µM and the CC50 (HT-29) was 3.41 µM. For the same molecule, the GI50 (PANC-1) was 2.69 µM, the “TGI PANC-1” value (PANC-1) was 6.76E−06 Molar and the CC50 (PANC-1) was ≥ 6.76 µM. For the same molecule, the GI50 (LoVo) was 0.155 µM, the “TGI LOVO” value (LoVo) was 7.23E−07 Molar and the CC50 (LoVo) was 2.9 µM. For the same molecule, the GI50 (K-562) was 5.85 µM, the “TGI K-562” value (K-562) was 6.76E−06 Molar and the CC50 (K-562) was ≥ 6.76 µM. For the same molecule, the “TGI LN-caP” value (LNCaP) was 6.76E−06 Molar, the GI50 (LNCaP) was 2.28 µM and the CC50 (LNCaP) was ≥ 6.76 µM. For the same molecule, the GI50 (SK-MEL-28) was 1.23 µM, the “TGI MEL-28” value (SK-MEL-28) was 2.20E−06 Molar and the CC50 (SK-MEL-28) was 3.96 µM. The GI50 (DU-145) was 1 µM, the LC50 (concentration causing 50% net cell kill) (DU-145) was 3.73 µM and the “TGI DU-145” value (DU-145) was 1.93E−06 Molar. The GI50 (HeLa-APL) was 1.24 µM, the “TGI HELA-APL” value (HeLa-APL) was 2.15E−06 Molar and the CC50 (HeLa-APL) was 3.74 µM. The “TGI A-549” value (A-549) was 2.72E−06 Molar, the GI50 (A-549) was 1.63 µM and the CC50 (A-549) was 4.53 µM. For the same molecule, the GI50 (IGROV-ET) was 0.515 µM, the “TGI IGROV-ET” value (IGROV-ET) was 1.35E−06 Molar and the CC50 (IGROV-ET) was 3.16 µM. The GI50 (LoVo-Dox) was 0.126 µM, the “TGI LOVO-DOX” value (LoVo-Dox) was 2.53E−07 Molar and the CC50 (LoVo-Dox) was 0.509 µM.
For `C/C=C1\NC(=O)[C@H](Cc2ccccc2)NC(=O)[C@@H](C(C)C)NC(=O)[C@@H]([C@@H](C)CC)NC(=O)[C@H](NC(=O)[C@H](NC(=O)[C@H](CCCN)NC(=O)[C@@H]2CCCN2C(=O)[C@H](NC(=O)[C@@H](NC(=O)[C@@H](NC(=O)[C@H](NC(=O)CC[C@@H](C)CC)C(C)C)[C@@H](C)O)C(C)C)C(C)C)[C@@H](C)CC)[C@@H](C)OC(=O)[C@H](C(C)C)NC1=O` [Compound 59, [Pro^9, (4S)-MeHex^14]-KF], the GI50 (IGROV-1; SRB) was ≥ 6.76 µM, the LC50 (concentration causing 50% net cell killing) (IGROV-1; SRB) was ≥ 6.76 µM and the “TGI IGROV” value (IGROV-1; SRB) was 6.76E−06 Molar. For the same molecule, the GI50 (HeLa; HELA) was ≥ 6.76 µM, the “TGI HELA” value (HeLa; HELA) was 6.76E−06 Molar and the CC50 (HeLa; HELA) was ≥ 6.76 µM. For the same molecule, the “TGI HT-29” value (HT-29; HT-29) was 6.76E−06 Molar, the GI50 (HT-29; HT-29) was ≥ 6.76 µM and the CC50 (HT-29; HT-29) was ≥ 6.76 µM. For the same molecule, the GI50 (PANC-1; PANC-1) was ≥ 6.76 µM, the “TGI PANC-1” value (PANC-1; PANC-1) was 6.76E−06 Molar and the CC50 (PANC-1; PANC-1) was ≥ 6.76 µM. For the same molecule, the GI50 (LoVo; LOVO) was 5.28 µM, the “TGI LOVO” value (LoVo; LOVO) was 6.76E−06 Molar and the CC50 (LoVo; LOVO) was ≥ 6.76 µM. For the same molecule, the GI50 (K-562; K-562) was ≥ 6.76 µM, the “TGI K-562” value (K-562; K-562) was 6.76E−06 Molar and the CC50 (K-562; K-562) was ≥ 6.76 µM. For the same molecule, the “TGI LN-caP” value (LNCaP; SRB) was 6.76E−06 Molar, the GI50 (LNCaP; SRB) was 4.52 µM and the CC50 (LNCaP; SRB) was ≥ 6.76 µM. For the same molecule, the GI50 (SK-MEL-28; SRB) was ≥ 6.76 µM, the “TGI MEL-28” value (SK-MEL-28; SRB) was 6.76E−06 Molar and the CC50 (SK-MEL-28; SRB) was ≥ 6.76 µM. For the same molecule, the GI50 (DU-145; SRB) was ≥ 6.76 µM, the LC50 (concentration causing 50% net cell kill) (DU-145; SRB) was ≥ 6.76 µM and the “TGI DU-145” value (DU-145; SRB) was 6.76E−06 Molar. The GI50 (HeLa-APL; HELA-APL) was ≥ 6.76 µM, the “TGI HELA-APL” value (HeLa-APL; HELA-APL) was 6.76E−06 Molar and the CC50 (HeLa-APL; HELA-APL) was ≥ 6.76 µM. For the same molecule, the “TGI A-549” value (A-549; A-549) was 6.76E−06 Molar, the GI50 (A-549; A-549) was ≥ 6.76 µM and the CC50 (A-549; A-549) was ≥ 6.76 µM. For the same molecule, the GI50 (IGROV-ET; SRB) was ≥ 6.76 µM, the “TGI IGROV-ET” value (IGROV-ET; SRB) was 6.76E−06 Molar and the CC50 (IGROV-ET; SRB) was ≥ 6.76 µM. The GI50 (LoVo-Dox; LOVO-DOX) was ≥ 6.76 µM, the “TGI LOVO-DOX” value (LoVo-Dox; LOVO-DOX) was 6.76E−06 Molar and the CC50 (LoVo-Dox; LOVO-DOX) was ≥ 6.76 µM.
For `C/C=C1\NC(=O)[C@H](Cc2ccccc2)NC(=O)[C@@H](C(C)C)NC(=O)[C@@H]([C@@H](C)CC)NC(=O)[C@H](NC(=O)[C@H](NC(=O)[C@H](CCCN)NC(=O)[C@H]2CCCCN2C(=O)[C@H](NC(=O)[C@@H](NC(=O)[C@@H](NC(=O)[C@H](NC(=O)CC[C@@H](C)CC)C(C)C)[C@@H](C)O)C(C)C)C(C)C)[C@@H](C)CC)[C@@H](C)OC(=O)[C@H](C(C)C)NC1=O` [Compound 60, [D-Pip^9, (4S)-MeHex^14]-KF], the GI50 (IGROV-1; SRB) was 1.24 µM, the LC50 (concentration causing 50% net cell killing) (IGROV-1; SRB) was 6.28 µM and the “TGI IGROV” value (IGROV-1; SRB) was 2.79E−06 Molar. The GI50 (HeLa; HELA) was 3.15 µM, the “TGI HELA” value (HeLa; HELA) was 6.70E−06 Molar and the CC50 (HeLa; HELA) was 6.7 µM. The “TGI HT-29” value (HT-29; HT-29) was 2.16E−06 Molar, the GI50 (HT-29; HT-29) was 1.04 µM and the CC50 (HT-29; HT-29) was 4.47 µM. For the same molecule, the GI50 (PANC-1; PANC-1) was 6.7 µM, the “TGI PANC-1” value (PANC-1; PANC-1) was 6.70E−06 Molar and the CC50 (PANC-1; PANC-1) was 6.7 µM. The GI50 (LoVo; LOVO) was 1.03 µM, the “TGI LOVO” value (LoVo; LOVO) was 2.44E−06 Molar and the CC50 (LoVo; LOVO) was 5.77 µM. The GI50 (K-562; K-562) was 5.3 µM, the “TGI K-562” value (K-562; K-562) was 6.70E−06 Molar and the CC50 (K-562; K-562) was 6.7 µM. For the same molecule, the “TGI LN-caP” value (LNCaP; SRB) was 2.59E−06 Molar, the GI50 (LNCaP; SRB) was 1.23 µM and the CC50 (LNCaP; SRB) was 5.43 µM. For the same molecule, the GI50 (SK-MEL-28; SRB) was 1.66 µM, the “TGI MEL-28” value (SK-MEL-28; SRB) was 3.07E−06 Molar and the CC50 (SK-MEL-28; SRB) was 5.68 µM. The GI50 (DU-145; SRB) was 1.64 µM, the LC50 (concentration causing 50% net cell kill) (DU-145; SRB) was 6.16 µM and the “TGI DU-145” value (DU-145; SRB) was 3.17E−06 Molar. For the same molecule, the GI50 (HeLa-APL; HELA-APL) was 2.05 µM, the “TGI HELA-APL” value (HeLa-APL; HELA-APL) was 4.42E−06 Molar and the CC50 (HeLa-APL; HELA-APL) was 6.7 µM. The “TGI A-549” value (A-549; A-549) was 3.66E−06 Molar, the GI50 (A-549; A-549) was 1.61 µM and the CC50 (A-549; A-549) was 6.7 µM. For the same molecule, the GI50 (IGROV-ET; SRB) was 1.21 µM, the “TGI IGROV-ET” value (IGROV-ET; SRB) was 2.68E−06 Molar and the CC50 (IGROV-ET; SRB) was 5.95 µM. For the same molecule, the GI50 (LoVo-Dox; LOVO-DOX) was 0.624 µM, the “TGI LOVO-DOX” value (LoVo-Dox; LOVO-DOX) was 1.98E−06 Molar and the CC50 (LoVo-Dox; LOVO-DOX) was 6.14 µM.
